This is an account of results in ChEMBL document CHEMBL3991601, “The target landscape of clinical kinase drugs” (Science, 2017).

Activity calls are given as the source filed them. Cut-off read from the data, not from the text of the source, for most assays here: actives have a measured Kd and inactives only a lower limit. Some results are limits rather than exact numbers.

The target of experiment [1] is T1, Eukaryotic translation initiation factor 5B (Homo sapiens, UniProt O60841).
T1 sequence (O60841 whole entry): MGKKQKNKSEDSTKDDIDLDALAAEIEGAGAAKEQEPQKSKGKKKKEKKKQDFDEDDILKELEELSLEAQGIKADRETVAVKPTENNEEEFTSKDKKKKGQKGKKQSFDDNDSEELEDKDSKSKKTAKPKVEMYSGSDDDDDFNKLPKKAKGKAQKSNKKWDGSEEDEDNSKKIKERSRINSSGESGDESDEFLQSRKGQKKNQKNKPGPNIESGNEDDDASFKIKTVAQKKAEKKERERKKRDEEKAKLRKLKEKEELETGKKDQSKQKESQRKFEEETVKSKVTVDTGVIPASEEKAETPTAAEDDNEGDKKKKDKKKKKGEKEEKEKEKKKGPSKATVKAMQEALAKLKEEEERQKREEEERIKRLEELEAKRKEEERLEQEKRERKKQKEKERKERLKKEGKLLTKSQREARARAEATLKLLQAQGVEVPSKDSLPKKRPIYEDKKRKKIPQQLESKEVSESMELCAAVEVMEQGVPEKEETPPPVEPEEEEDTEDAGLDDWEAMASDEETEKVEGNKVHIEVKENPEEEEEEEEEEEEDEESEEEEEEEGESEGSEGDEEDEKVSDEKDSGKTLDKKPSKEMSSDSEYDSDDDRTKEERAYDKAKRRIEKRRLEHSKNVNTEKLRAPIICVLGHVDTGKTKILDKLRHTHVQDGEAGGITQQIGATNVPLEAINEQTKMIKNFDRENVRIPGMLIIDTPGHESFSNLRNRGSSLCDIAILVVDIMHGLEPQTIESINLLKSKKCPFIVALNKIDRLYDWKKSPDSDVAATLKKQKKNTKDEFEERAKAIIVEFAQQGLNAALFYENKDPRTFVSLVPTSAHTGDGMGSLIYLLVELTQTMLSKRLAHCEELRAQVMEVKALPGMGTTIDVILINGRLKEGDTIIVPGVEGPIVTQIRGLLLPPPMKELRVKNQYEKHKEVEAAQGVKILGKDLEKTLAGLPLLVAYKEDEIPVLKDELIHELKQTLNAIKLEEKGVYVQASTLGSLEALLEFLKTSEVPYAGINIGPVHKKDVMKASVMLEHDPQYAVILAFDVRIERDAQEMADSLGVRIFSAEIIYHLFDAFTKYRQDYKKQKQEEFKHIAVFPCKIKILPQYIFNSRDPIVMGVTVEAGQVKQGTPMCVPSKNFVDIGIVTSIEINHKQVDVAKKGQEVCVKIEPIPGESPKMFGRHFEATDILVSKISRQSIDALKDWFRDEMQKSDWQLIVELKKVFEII

The target of experiment [2] is T2, MAP/microtubule affinity-regulating kinase 4 (Homo sapiens, UniProt Q96L34).
T2 sequence (Q96L34 whole entry): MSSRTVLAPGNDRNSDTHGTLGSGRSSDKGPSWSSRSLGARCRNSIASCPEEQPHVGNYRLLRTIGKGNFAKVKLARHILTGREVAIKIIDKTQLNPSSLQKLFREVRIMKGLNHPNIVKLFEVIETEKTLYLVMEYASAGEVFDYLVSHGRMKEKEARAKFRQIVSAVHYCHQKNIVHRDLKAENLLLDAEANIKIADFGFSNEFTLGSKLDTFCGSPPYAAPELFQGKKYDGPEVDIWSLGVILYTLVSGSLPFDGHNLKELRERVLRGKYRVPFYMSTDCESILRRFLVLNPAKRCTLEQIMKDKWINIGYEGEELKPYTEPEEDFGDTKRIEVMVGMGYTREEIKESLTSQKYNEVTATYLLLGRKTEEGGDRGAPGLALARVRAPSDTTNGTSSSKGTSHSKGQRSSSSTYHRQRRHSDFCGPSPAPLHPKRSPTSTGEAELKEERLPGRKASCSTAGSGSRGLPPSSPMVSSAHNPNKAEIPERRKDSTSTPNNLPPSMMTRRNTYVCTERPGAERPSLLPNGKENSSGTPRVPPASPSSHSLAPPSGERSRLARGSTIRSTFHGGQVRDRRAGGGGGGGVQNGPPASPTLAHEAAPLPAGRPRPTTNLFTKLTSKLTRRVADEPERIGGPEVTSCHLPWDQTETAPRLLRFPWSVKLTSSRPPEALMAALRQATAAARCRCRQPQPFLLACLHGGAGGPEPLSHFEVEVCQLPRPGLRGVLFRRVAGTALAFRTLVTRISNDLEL

For experiment [3], the target named is Dual specificity mitogen-activated protein kinase kinase 1 (Homo sapiens, UniProt Q02750).
Note: in the data inactive means no Kd found up to 30 µM.

Sequence of Dual specificity mitogen-activated protein kinase kinase 1 (Q02750 whole entry): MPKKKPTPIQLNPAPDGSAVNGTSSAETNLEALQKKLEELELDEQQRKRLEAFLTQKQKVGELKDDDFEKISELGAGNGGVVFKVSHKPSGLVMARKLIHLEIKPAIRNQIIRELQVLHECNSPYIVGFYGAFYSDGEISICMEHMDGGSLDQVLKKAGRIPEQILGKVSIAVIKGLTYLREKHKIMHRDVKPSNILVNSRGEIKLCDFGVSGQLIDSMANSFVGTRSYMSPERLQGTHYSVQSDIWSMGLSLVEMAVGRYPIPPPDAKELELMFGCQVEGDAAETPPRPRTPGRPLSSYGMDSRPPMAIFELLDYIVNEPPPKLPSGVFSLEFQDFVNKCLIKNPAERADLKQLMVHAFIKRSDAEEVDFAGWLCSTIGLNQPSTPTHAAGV

On to `CCN(CCCOc1ccc2c(Nc3cc(CC(=O)Nc4cccc(F)c4)n[nH]3)ncnc2c1)CCOP(=O)(O)O` [BARASERTIB], for which the Kd (commonly the constant that tells how readily two partners part at equilibrium) in experiment [1] is > 30 µM (inactive).

As to `C=CCn1c(=O)c2cnc(Nc3ccc(N4CCN(C)CC4)cc3)nc2n1-c1cccc(C(C)(C)O)n1` [ADAVOSERTIB], the Kd in experiment [2] and in experiment [1] was > 30 µM (inactive) in each case.

With `COc1cc2nccc(Oc3ccc(NC(=O)C4(C(=O)Nc5ccc(F)cc5)CC4)cc3)c2cc1OC` [CABOZANTINIB], the Kd in experiment [2], in experiment [3] and in experiment [1] was > 30 µM (inactive) each time.

With `COc1cc2c(N3CCN(C(=O)Nc4ccc(OC(C)C)cc4)CC3)ncnc2cc1OCCCN1CCCCC1` [TANDUTINIB], the Kd in experiment [1] is > 30 µM (inactive).

For the molecule `COc1cc2c(Oc3ccc4[nH]c(C)cc4c3F)ncnc2cc1OCCCN1CCCC1` [CEDIRANIB], in experiment [1], the Kd is > 30 µM (inactive).

With `CCN1CCN(Cc2ccc(Nc3ncc(F)c(-c4cc(F)c5nc(C)n(C(C)C)c5c4)n3)nc2)CC1` [ABEMACICLIB], the Kd in experiment [2], in experiment [3] and in experiment [1] was > 30 µM (inactive) throughout.

With `Cn1cnc2c(F)c(Nc3ccc(Br)cc3Cl)c(C(=O)NOCCO)cc21` [SELUMETINIB], in experiment [1], the Kd was > 30 µM (inactive).

`CC1(COc2ccc3c(c2)ncn3-c2ccc3cccc(N4CCC(N)CC4)c3n2)COC1` [CRENOLANIB]: the values for the Kd in experiment [2], in experiment [3] and in experiment [1] were 0.025 µM (active), > 30 µM (inactive) and > 30 µM (inactive), respectively.

Turning to `CCOc1ccn(-c2ccc(F)cc2)c(=O)c1C(=O)Nc1ccc(Oc2ccnc(N)c2Cl)c(F)c1` [BMS-777607], the Kd in experiment [2], in experiment [3] and in experiment [1] was > 30 µM (inactive) throughout.

Take `FC(F)(F)c1ccc(CNc2ccc(Cc3c[nH]c4ncc(Cl)cc34)cn2)cn1` [PEXIDARTINIB]: the Kd in experiment [2] and in experiment [3] was > 30 µM (inactive) in each case.

`CN(c1ncccc1CNc1nc(Nc2ccc3c(c2)CC(=O)N3)ncc1C(F)(F)F)S(C)(=O)=O` [PF-00562271]: the Kd in experiment [1] is > 30 µM (inactive).

Consider `CC1(C)CNc2cc(NC(=O)c3cccnc3NCc3ccncc3)ccc21` [MOTESANIB], for which the Kd in experiment [1] was > 30 µM (inactive).

With `COc1cccc(Nc2ncnn3ccc(CN4CC[C@@H](N)[C@H](O)C4)c23)c1` [BMS-690514], the Kd in experiment [2] and in experiment [3] was > 30 µM (inactive) throughout.

In the case of `C[C@@]1(C(=O)Nc2ccc(F)nc2)CCCN1c1nc(Nc2cc(C3CC3)n[nH]2)c2cccn2n1` [BMS-754807], in experiment [1], the Kd was > 30 µM (inactive).

For `O=S(=O)(c1cccc2cnccc12)N1CCCNCC1` [FASUDIL], the Kd in experiment [2] and in experiment [1] was > 30 µM (inactive) each time.

For the molecule `O=C(O)c1ccc2c(c1)nc(Nc1cccc(Cl)c1)c1ccncc12` [SILMITASERTIB], in experiment [3], the Kd is > 30 µM (inactive).

Turning to `CCc1nc(C(N)=O)c(Nc2ccc(N3CCC(N4CCN(C)CC4)CC3)c(OC)c2)nc1NC1CCOCC1` [GILTERITINIB], the Kd in experiment [2] and in experiment [1] was > 30 µM (inactive) in each case.

`C[C@]1(O)C[C@@H](c2nc(-c3ccc4ccc(-c5ccccc5)nc4c3)c3c(N)nccn32)C1` [LINSITINIB]: the Kd in experiment [2] and in experiment [1] was > 30 µM (inactive) in each case.

Regarding `Cn1c(=O)n(-c2ccc(C(C)(C)C#N)cc2)c2c3cc(-c4cnc5ccccc5c4)ccc3ncc21` [DACTOLISIB], the Kd in experiment [2] and in experiment [1] was > 30 µM (inactive) throughout.
